Six compounds from publication PMC11396667, “Design, Synthesis, and Anticancer and Antibacterial Activities of Quinoline-5-Sulfonamides” (Molecules, 2024) can be followed below.

In brackets after ≈: the same amount, converted by molar mass.

Assay type in all cases: cell-based
Assay [1] relates to Staphylococcus aureus ATCC 29213. Put plainly: MBC, agar aliquot subculture method, SA. Conditions: ATCC29213, 99.9% decrease in CFU, 24 h, 37 °C. The source says:
(§1) The activities of the individual derivatives were expressed as minimum inhibitory concentrations (MICs) and minimum bactericidal concentrations (MBCs) and are shown in Table 3 together with the values of the antibiotics used as standards for comparison. […] MBC values of bactericidal compounds are indicated in bold in Table 3.
(§2) For the above-mentioned strains/isolates, the agar aliquot subculture method was used as a test for bactericidal agents. After the MIC value determination, the inoculum was transferred to CaMH (Oxoid) for staphylococci, and BHI (Oxoid) for enterococci medium using a multipoint inoculator. The plates were incubated in a thermostat at 37 °C for 24 h. The lowest concentration of test compound at which ≤5 colonies were obtained was then evaluated as MBC, corresponding to a 99.9% decrease in CFU relative to the original inoculum.

In assay [2] the test system is HFF-1 (normal human dermal fibroblasts). The experiment in a line: WST-1 cell viability assay, normal HFF-1. Conditions: HFF-1, WST-1, 72 h exposure, ± SD, n = 6. The method, then: (§3) The synthesized compounds were tested using three cancer cell lines—human amelanotic melanoma (C-32), human breast adenocarcinoma (MDA-MB-231), and human lung adenocarcinoma (A549)—and, for comparison, normal human dermal fibroblasts (HFF-1). The WST-1 (water-soluble tetrazole salt) assay was used to evaluate the effect of the synthesized compounds on the viability of cultured cells.
(§4) Compounds were evaluated for their antiproliferative activity using three cultured cell lines: C-32 (human amelanotic melanoma, ATCC, Manassas, VA, USA), A549 (human lung adenocarcinoma, ATCC, Manassas, VA, USA), MDA-MB-231 (human breast adenocarcinoma derived from metastatic site: pleural effusion, ATCC, Manassas, VA, USA), together with HFF-1 (normal human dermal fibroblasts, ATCC, Manassas, VA, USA). The cultured cells were kept at 37 °C and 5% CO2.
(§5) Cells were seeded in 96-well plates at 5000/well in 100 μL of medium. After 24 h of incubation, the medium was replaced with a new one with the addition of the test substance. After 72 h, the following tests were performed: with crystal violet (determination of the number of adherent cells in the culture), the WST-1 test (determination of the relative number of living cells and their metabolic activity), and the LDH test (determination of the relative number of dead cells in cultures—cytotoxicity of the tested substance).
(§6) WST-1 test: The WST-1 test (Roche Diagnostics, Mannheim, Germany) allows one to determine the relative number of cells in cultures. Absorbance is directly proportional to the number of cells and their metabolic activity. The absorbance measurement is performed at λ = 450 nm (reference wave 600 nm).
(In general: Tetrazolium dyes change colour on reduction, which living cells bring about.)

The subject of assay [3] is vancomycin-resistant E. faecalis VRE 725B. The experiment in a line: MIC, microtitration broth method, VRE3. Conditions: Enterococcus faecalis, 24 h, 37 °C, BHI broth. The source says: (§7) Since there is a general decrease in immunity during the treatment of oncological patients, i.e., patients are more susceptible to infectious diseases, it is advantageous if anticancer agents show antimicrobial properties at the same time. Therefore, the effects of the compounds were also investigated against Gram-positive bacteria. For this purpose, the susceptible collection strains of aerobic Staphylococcus aureus ATCC 29213 and facultatively aerobic Enterococcus faecalis ATCC 29212 and resistant clinical isolates of methicillin-resistant S. aureus (MRSA) SA 3202, SA 630 carrying the mecA gene, and vancomycin-resistant isolates of E. faecalis (VRE) 342B, 368, and 725B carrying the vanA gene were selected. Thus, the selection of the studied bacterial strains was adopted following the CLSI ([…]) international reference methodologies.
(§8) The in vitro antibacterial activity of the synthesized compounds was evaluated against representatives of multidrug-resistant bacteria, […] clinical isolates of methicillin-resistant S. aureus: clinical isolates of human origin, MRSA SA 3202, and MRSA SA 630 (National Institute of Public Health, Prague, Czech Republic), carrying the mecA gene. These two clinical isolates were classified as vancomycin-susceptible (but with a higher MIC of vancomycin equal to 2 μg/mL (VA2-MRSA). Vancomycin- and methicillin-susceptible S. aureus ATCC 29213 and vancomycin-susceptible Enterococcus faecalis ATCC 29212, obtained from the American Type Culture Collection, were used as the reference and quality control strains. Three vanA gene-carrying vancomycin-resistant isolates of E. faecalis (VRE 342B, VRE 368, VRE 725B) (Department of Infectious Diseases and Microbiology, Faculty of Veterinary Medicine, University of Veterinary Sciences Brno, Czech Republic) were provided by Oravcova et al..
(§9) The minimum inhibitory concentrations (MICs) were evaluated by the microtitration broth method according to the CLSI, with some modifications. The compounds were dissolved in DMSO (Sigma, St. Louis, MO, USA) to obtain a concentration of […] and diluted in a microtitration plate in an appropriate medium, i.e., Cation-Adjusted Mueller–Hinton Broth (CaMH, Oxoid, Basingstoke, UK) for staphylococci, and Brain Heart Infusion Broth (BHI, Oxoid) for enterococci to reach the final concentration of 256–0.125 µg/mL. Microtiter plates were inoculated with test microorganisms so that the final concentration of bacterial cells was 10^5. Ampicillin, oxacillin, and ciprofloxacin (Sigma) were used as reference drugs. A drug-free control and a sterility control were included. The plates were incubated for 24 h at 37 °C for staphylococci and enterococci. […] The experiments were repeated three times.

Assay [4] concerns A549 (human lung adenocarcinoma) cells. The experiment in a line: WST-1 cell viability assay, A549. As to conditions: Homo sapiens, A549; WST-1, 72 h exposure, ± SD, n = 6. The method, then: as §3, §4, §5, §6
The test system of assay [5] is C-32 (human amelanotic melanoma) cells. Put plainly: WST-1 cell viability assay, C-32. Conditions: Homo sapiens; WST-1, 72 h exposure, ± SD, n = 6. The method, then:
as §3, §4, §5, §6

The subject of assay [6] is vancomycin-resistant E. faecalis VRE 368. The experiment in a line: MIC, microtitration broth method, VRE2. As to conditions: Enterococcus faecalis, 24 h, 37 °C, BHI broth.
Description: as §7, §8, §9

For assay [7], the system named is MDA-MB-231 (human breast adenocarcinoma) cells. Put plainly: WST-1 cell viability assay, MDA-MB-231. As to conditions: Homo sapiens, MDA-MB-231; WST-1, 72 h exposure, ± SD, n = 6. On the procedure: as §3, §4, §5, §6
In assay [8] the test system is methicillin-resistant S. aureus SA 630. The experiment in a line: MBC, agar aliquot subculture method, MRSA2. As to conditions: Staphylococcus aureus; 99.9% decrease in CFU, 24 h, 37 °C.
Description: as §1, §2

For assay [9], the system named is Staphylococcus aureus ATCC 29213. The experiment in a line: MIC, microtitration broth method, SA. As to conditions: ATCC29213, 24 h, 37 °C, CaMH broth.
Description: as §7, §8, §9

`C#CCNS(=O)(=O)c1ccc(O)c2ncccc12` [3a, 8-Hydroxy-N-(prop-2-yn-1-yl)quinoline-5-sulfonamide]: the MBC is 122 µM (≈ 32 µg/mL) in assay [1] and 244 µM (≈ 64 µg/mL) in [8]. The IC50 in [2] was over 100 µM; in assay [4], 23.1 ± 0.7 µM; in [5] it was 19.8 ± 1.1 µM; in assay [7], 23.3 ± 1.2 µM. In addition, the MIC amounted to 977 µM (≈ 256 µg/mL) in [3], 977 µM (≈ 256 µg/mL) in assay [6] and 122 µM (≈ 32 µg/mL) in [9].

Consider `C#CC(C)(C)NS(=O)(=O)c1ccc(O)c2ncccc12` [3b, 8-Hydroxy-N-(1,1-dimethylprop-2-yn-1-yl)quinoline-5-sulfonamide], for which the MBC in assay [1] and in assay [8] was 110 µM (≈ 31.9 µg/mL) each time. Besides, the IC50 was over 100 µM in [2], 17.2 ± 1.5 µM in assay [4], 22.1 ± 1.5 µM in assay [5] and 55.8 ± 1.9 µM in assay [7]. Further, the MIC in assay [3] came out at 883 µM (≈ 256 µg/mL); in assay [6] it was 883 µM (≈ 256 µg/mL); in assay [9], 55.2 µM (≈ 16 µg/mL).

As to `C#CCN(C)S(=O)(=O)c1ccc(O)c2ncccc12` [3c, 8-Hydroxy-N-methyl-N-(prop-2-yn-1-yl)quinoline-5-sulfonamide], the minimal bactericidal concentration (MBC) in [1] and in assay [8] was 29 µM (≈ 8.01 µg/mL) throughout. Besides, the concentration for half-maximal inhibition (IC50) is over 100 µM in assay [2], 13.9 ± 0.6 µM in assay [4], 9.8 ± 0.6 µM in assay [5] and 2.2 ± 0.1 µM in [7]. Moreover, the values for the minimum inhibitory concentration (MIC) in [3], in [6] and in assay [9] were 464 µM (≈ 128 µg/mL), 464 µM (≈ 128 µg/mL) and 29 µM (≈ 8.01 µg/mL), respectively.

For the compound `C#CCOc1ccc(NS(=O)(=O)c2ccc(O)c3ncccc23)cc1` [3d, 8-Hydroxy-N-[4-(prop-2-yn-1-yloxy)phenyl]quinoline-5-sulfonamide], the MBC came out at 45.2 µM (≈ 16 µg/mL) in assay [1] and 90.4 µM (≈ 32 µg/mL) in assay [8]. Further, the 50% inhibitory concentration (IC50) is over 100 µM in assay [2], 12.9 ± 1.1 µM in assay [4], 10.4 ± 0.5 µM in assay [5] and 45.3 ± 5.4 µM in assay [7]. Moreover, the figures for the minimal inhibitory concentration (MIC) in [3], in assay [6] and in [9] were 362 µM (≈ 128 µg/mL), 362 µM (≈ 128 µg/mL) and 45.2 µM (≈ 16 µg/mL), respectively.

Take `C#CCOc1cccc(NS(=O)(=O)c2ccc(O)c3ncccc23)c1` [3e, 8-Hydroxy-N-[3-(prop-2-yn-1-yloxy)phenyl]quinoline-5-sulfonamide]: the results for the MBC in assay [1] and in assay [8] were 45.2 µM (≈ 16 µg/mL) and 90.4 µM (≈ 32 µg/mL), respectively. The IC50 in assay [2] was over 100 µM; in [4], 11.5 ± 0.7 µM; in [5] it was 8.6 ± 0.9 µM; in [7], 15.2 ± 0.8 µM. The MIC came out at 362 µM (≈ 128 µg/mL) in assay [3], 362 µM (≈ 128 µg/mL) in [6] and 45.2 µM (≈ 16 µg/mL) in assay [9].

With `C#CCOc1ccccc1NS(=O)(=O)c1ccc(O)c2ncccc12` [3f, 8-Hydroxy-N-[2-(prop-2-yn-1-yloxy)phenyl]quinoline-5-sulfonamide], the results for the MBC in assay [1] and in [8] were 45.2 µM (≈ 16 µg/mL) and 90.4 µM (≈ 32 µg/mL), respectively. The IC50 in [2] is 28.1 ± 2.2 µM; in assay [4] it was 19.1 ± 0.8 µM; in assay [5], 29.6 ± 2.6 µM; in [7] it was 14.7 ± 1.2 µM. In addition, the MIC in assay [3] turned out to be 362 µM (≈ 128 µg/mL); in [6], 362 µM (≈ 128 µg/mL); in assay [9], 45.2 µM (≈ 16 µg/mL).

The MBC is the lowest tested concentration that kills the bacteria rather than only halting them. Low values mean more potent killing, high ones less potent killing. A word on the IC50: it is the concentration that inhibits the measured activity by half. Usually MIC stands for the lowest concentration found to suppress growth.
